Counter-ions that a name gives are not always drawn.
What was measured:
NaPi-IIb = biological target: T1, NaPi-IIb (Mus musculus, UniProt Q9DBP0); assay: Inhibition of NaPi-IIb in vivo: plasma counts after oral radioactive phosphate in mice
T1 construct: from tissue; host or cells: living C57Bl6 mice (gastrointestinal tract)
T1 sequence (Q9DBP0 1-697): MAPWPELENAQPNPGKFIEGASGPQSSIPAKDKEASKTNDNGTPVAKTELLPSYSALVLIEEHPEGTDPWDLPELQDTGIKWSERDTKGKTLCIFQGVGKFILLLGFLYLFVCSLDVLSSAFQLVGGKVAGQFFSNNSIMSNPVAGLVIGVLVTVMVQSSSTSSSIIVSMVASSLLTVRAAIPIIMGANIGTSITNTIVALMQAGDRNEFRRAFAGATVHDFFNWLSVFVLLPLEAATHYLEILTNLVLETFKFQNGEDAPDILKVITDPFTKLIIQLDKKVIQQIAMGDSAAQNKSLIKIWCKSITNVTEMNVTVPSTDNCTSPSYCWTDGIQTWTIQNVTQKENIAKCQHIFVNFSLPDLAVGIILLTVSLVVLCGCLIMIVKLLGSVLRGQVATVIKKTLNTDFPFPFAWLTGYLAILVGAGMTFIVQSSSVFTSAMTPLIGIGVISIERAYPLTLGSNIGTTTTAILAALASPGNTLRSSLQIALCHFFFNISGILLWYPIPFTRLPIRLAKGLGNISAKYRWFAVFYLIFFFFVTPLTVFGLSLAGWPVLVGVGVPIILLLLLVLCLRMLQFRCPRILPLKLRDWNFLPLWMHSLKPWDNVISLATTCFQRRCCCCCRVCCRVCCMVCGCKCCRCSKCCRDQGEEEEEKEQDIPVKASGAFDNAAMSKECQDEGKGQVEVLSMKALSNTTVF
Method: For test article and vehicle control preparation, add vehicle, 20% hydroxypropyl-beta-cyclodextrin (HPBCD) in water, to the test article. Sonicate to reduce particle size in an ultrasonic water bath as needed. If necessary, use a polytron to break down any visible particles in test article solution. The pH of the vehicle control is adjusted to 8.0 to 8.5 with 1N NaOH.
Radioactive phosphate preparation: Prepare a 16.25 mM Na2HPO4 solution using 0.9% saline as the vehicle. Mix until a clear solution is formed. Adjust pH to approximately 7.4. Filter using a sterile 0.2 μm polyethersulfone membrane. For the final preparation of the radioactive phosphate dosing solution, add 0.5 μl of stock H3^3PO4 per 1 mL of Na2HPO4. Mix thoroughly then sterile filter the H3^33PO4+Na2HPO4 solution using a 0.2 μm polyethersulfone membrane prior to dosing. Measure the radioactivity of each sample with the scintillation counter. If the DPMs are between 100,000 and 150,000 proceed with dosing.
In-vivo protocol: Male C57B16 male mice at the age of about 8-9 wks old are fasted for 16 hrs the day before the study. They are assigned to treatment groups based on body weight on the day of study. Mice are dosed orally with either the test article, prepared as described above, or vehicle control at a 10 mis/kg dose volume. Fifteen minutes later, the radioactive phosphate dosing solution is given by oral gavage. Fifteen minutes later, blood is collected by orbital bleed. Plasma is prepared and 50 μl of EDTA plasma from each mouse is mixed with 10 ml of scintillation fluid and the counts determined by scintillation counting. The effect of the test article is determined by comparing the counts in the plasma from the test article treated animals to counts in the plasma of the vehicle control treated animals [Percent Inhibition=[…]]. Percent inhibition is measured at 30 minutes post administration of the compound or vehicle, and at 15 minutes post administration of the labelled phosphate. Percent Inhibition for indicated Examples are illustrated in Table 3 below.
Alternative vehicles, for example poly-1-vinylpyrrolidone-co-vinyl acetate (PVP-VA), at varying concentrations, may be used. Example 1 can be assayed in PVP-VA, and for this study the compound is formulated as described in the solid dispersion preparation of Example 1, followed by dissolving in water then dosing by oral gavage. The vehicle control is water with varying concentrations of PVP-VA, matching the concentration found in the highest dose of Example 1, the lowest dose of Example 1, and an intermediate dose of Example 1. No effect of varying PVP-VA on the uptake of radiolabeled phosphate is observed over several studies, and thus all the vehicles are averaged to calculate percent inhibition.

gastric emptying = assay: Effect on gastric emptying in vivo (radiolabeled phosphate recovered from stomach); parameters: species or system mice
Method: The effect of a test compound on gastric emptying can be assessed by dosing the compound and radiolabeled phosphate in a manner similar to that used to assess a compound's ability to inhibit NaPi-IIb in vivo. After bleeding the mice, they were sacrificed and their stomachs harvested. The harvested stomachs are digested in 10 ml of 1N NaOH overnight, and the recovered radiolabeled phosphate DPMs determined by scintillation counting. The compound mediated effect on the rate of gastric emptying is determined by comparing the dpms in the stomach of animals treated with compound, to that of animals treated with vehicle.

normal rats = assay: Four-day in vivo tolerability/toxicity in normal rats; details: administered in vivo to normal rats for four days
From the text: Compounds of the invention, for instance Example 1, show advantageous pharmacological properties, such as potency, in vivo distribution, in vivo efficacy, and favorable lack of toxicity in preclinical testing.

murine NaPi-IIb = biological target: T2, murine NaPi-IIb (Mus musculus, UniProt Q9DBP0); assay: Inhibition of 33P uptake in mouse NaPi-IIb T-REX-CHO stable cell line; assay type: cell-based; details: 60 min at RT, geometric mean (SD), read-out: m NaPi-IIb rel IC50 (nM), (SD)
T2 construct: expressed in transfected cells
T2 sequence (Q9DBP0 1-697): T1 sequence (Q9DBP0 1-697)
Method: Inhibition of ^33P uptake is measured in human and mouse NaPi-IIb T-REX™-CHO stable cell lines. cDNA for NaPi-IIb is subcloned in plasmid SLC34A2 pcDNA5/TO (human) and SLC34A2 pcDNA5/TO (mouse) and stable cell lines are generated from clonal isolation for both human and mouse respectively. Mouse and human stable lines are maintained in continuous culture in growth media (Dulbecco's Modified Eagle Medium: Nutrient Mixture F-12 (3:1), 10% Heat Inactivated FBS, 1% penicillin/streptomycin/FUNGIEZONE® (HYCLONE™), 20 mM HEPES, 250 μg/mL hygromycin, 5 μg/mL blasticidin). Cells are harvested from T225 cell culture flasks (CORNING®) using 0.25% Trypsin, and plated in 96 well CYTOSTAR-T™ scintillating microplates (Amersham Systems) at 40,000 cells/well in 100 μL of growth media plus 100 ng/mL of tetracycline. Cell plates are incubated overnight at 37° C. and 5% C02. The next day, compounds are serially diluted using one to three dilutions in 100% DMSO. Cell plates may remain in the incubator until ready to be assayed. A cell plate is removed from the incubator and media removed. Cells are washed 3 times with 200 μL assay buffer (137 mM NaCl, 5.4 mM KCl, 2.8 mM CaCl2), 1.2 mM MgSO4, and 14 mM Tris-HCl buffer, pH˜7.5), removing buffer in between washes. Serially diluted compounds in DMSO are further diluted 50 fold in assay buffer and 50 μL added to the CYTOSTAR-T™ assay plate, immediately followed by the addition of 50 μL of ^33P solution (PERKIN-ELMER®, Walton, Mass.; 0.05 μCi/50 μL). CYTOSTAR-T™ assay plates are covered with foil to protect from light and incubated for 60 min at RT. After the 60 min incubation, 100 μL of a stop solution (assay buffer+400 μM Phloretin) is added to the assay plate to stop ^33P uptake. The plate is immediately read on a Wallac MICROBETA® Trilux liquid scintillation counter and luminometer after stop solution is added with 1 minute count per well. Each plate may be processed separately and staggered in time so there may be no delay in counting after stop solution is added. Percent inhibition at all concentrations tested (final assay concentrations 100-0.005 μM) are calculated relative to 1% DMSO (minimum effect), and the effect of 100 μM of a fully efficacious NaPi-IIb inhibitor (maximum effect). IC50 values were calculated using a 4 parameter logistic curve fitting equation. The numbers presented are the geometric means with standard deviation (SD) calculated where n is the number of runs. Thus. Table 1 describes the relative IC50 values for Examples 1-28 against human NaPi-IIb and murine NaPi-IIb, respectively.

[1] = 5 mg/kg oral, 20% HPBCD vehicle, fasted male mice, 30 min post compound, 15 min post labelled phosphate

CC1(C)CN(C(=O)NCCCCO)CCN1Cc1cccc(C(=O)Nc2sc3c(c2C(=O)Nc2cc(F)c(CCc4ccc(C(=O)O)cc4)c(F)c2)CCCC3)c1 [Example 1, 4-[2-[2,6-difluoro-4-[[2-[[3-[[4-(4-hydroxybutylcarbamoyl)-2,2-dimethyl-piperazin-1-yl]methyl]benzoyl]amino]-4,5,6,7-tetrahydrobenzothiophene-3-carbonyl]amino]phenyl]ethyl]benzoic Acid] was tested, and the “Percent Inhibition” value (NaPi-IIb; 0.03 mg/kg oral gavage, PVP-VA solid dispersion formulation in water, mice) was 0.75%, the “Percent Inhibition” value (NaPi-IIb; 0.1 mg/kg oral gavage, PVP-VA solid dispersion formulation in water, mice) was 30.61% and the “Percent Inhibition” value (NaPi-IIb; 0.3 mg/kg oral gavage, PVP-VA solid dispersion formulation in water, mice) was 51.21%. For the same compound, the “Percent Inhibition” value (NaPi-IIb; 1 mg/kg oral gavage, PVP-VA solid dispersion formulation in water, mice) was 66.90%, the “Percent Inhibition” value (NaPi-IIb; 3 mg/kg oral gavage, PVP-VA solid dispersion formulation in water, mice) was 68.71% and the “Percent Inhibition” value (NaPi-IIb; 10 mg/kg oral gavage, PVP-VA solid dispersion formulation in water, mice) was 75.64%. For the same compound, the “Percent Inhibition” value (NaPi-IIb; 30 mg/kg oral gavage, PVP-VA solid dispersion formulation in water, mice) was 75.83%, the “margin of NaPi-IIb inhibition with respect to inhibition of in vivo gastric emptying” value (gastric emptying) was “surprisingly advantageous margin” and the tolerability (normal rats) was “generally well tolerated”. The toxicity (normal rats) was “advantageous lack of toxicity”.
CC1(C)CN(CCCC(=O)O)CCN1Cc1cccc(C(=O)Nc2sc3c(c2C(=O)Nc2cc(F)c(CCc4ccc(C(=O)O)cc4)c(F)c2)CCCC3)c1 [Example 4, 4-[2-[4-[[2-[[3-[[4-(3-carboxypropyl)-2,2-dimethyl-piperazin-1-yl]methyl]benzoyl]amino]-4,5,6,7-tetrahydrobenzothiophene-3-carbonyl]amino]-2,6-difluoro-phenyl]ethyl]benzoic Acid] was tested, and the “Percent Inhibition” value (NaPi-IIb; [1]) was 52%.
CC1(C)CN(C(=O)CN)CCN1Cc1cccc(C(=O)Nc2sc3c(c2C(=O)Nc2cc(F)c(CCc4ccc(C(=O)O)cc4)c(F)c2)CCCC3)c1 [Example 6, 4-[2-[4-[[2-[[3-[[4-(2-aminoacetyl)-2,2-dimethyl-piperazin-1-yl]methyl]benzoyl]amino]-4,5,6,7-tetrahydrobenzothiophene-3-carbonyl]amino]-2,6-difluoro-phenyl]ethyl]benzoic Acid] was tested, and the “Percent Inhibition” value (NaPi-IIb; [1]) was 62%.
With COCCN(CCOC)S(=O)(=O)N1CCN(Cc2cccc(C(=O)Nc3sc4c(c3C(=O)Nc3cc(F)c(CCc5ccc(C(=O)O)cc5)c(F)c3)CCCC4)c2)C(C)(C)C1 [Example 3, 4-[2-[4-[[2-[[3-[[4-[bis(2-methoxyethyl)sulfamoyl]-2,2-dimethyl-piperazin-1-yl]methyl]benzoyl]amino]-4,5,6,7-tetrahydrobenzothiophene-3-carbonyl]amino]-2,6-difluoro-phenyl]ethyl]benzoic Acid] the IC50 (murine NaPi-IIb) was 40.9 nM.
With CNC(=O)N1C2CCC1CN(Cc1cccc(C(=O)Nc3sc4ccccc4c3C(=O)Nc3cc(F)c(CCc4ccc(C(=O)O)cc4)c(F)c3)c1)C2 [Example 13, 4-[2-[2,6-difluoro-4-[[2-[[3-[[8-(methylcarbamoyl)-3,8-diazabicyclo[3.2.1]octan-3-yl]methyl]benzoyl]amino]benzothiophene-3-carbonyl]amino]phenyl]ethyl]benzoic Acid, Formic Acid Salt] the IC50 (murine NaPi-IIb) was 9 nM.
CC1(C)CN(C(=O)CCC(=O)O)CCN1Cc1cccc(C(=O)Nc2sc3c(c2C(=O)Nc2cc(F)c(CCc4ccc(C(N)=O)cc4)c(F)c2)CCCC3)c1 [Example 8, 4-[4-[[3-[[3-[[4-[2-(4-carbamoylphenyl)ethyl]-3,5-difluoro-phenyl]carbamoyl]-4,5,6,7-tetrahydrobenzothiophen-2-yl]carbamoyl]phenyl]methyl]-3,3-dimethyl-piperazin-1-yl]-4-oxo-butanoic Acid] was tested, and the “Percent Inhibition” value (NaPi-IIb; [1]) was 60%.
COCCCCNC(=O)N1CCN(Cc2cccc(C(=O)Nc3sc4c(c3C(=O)Nc3cc(F)c(CCc5ccc(C(=O)O)cc5)c(F)c3)CCCC4)c2)C(C)(C)C1 [Example 7, 4-[2-[2,6-difluoro-4-[[2-[[3-[[4-(4-methoxybutylcarbamoyl)-2,2-dimethyl-piperazin-1-yl]methyl]benzoyl]amino]-4,5,6,7-tetrahydrobenzothiophene-3-carbonyl]amino]phenyl]ethyl]benzoic Acid] showed an IC50 (murine NaPi-IIb) of 8.56 nM.
